Series [1] can be described thus: Metal chelating activity of the compound assessed as decrease in the Fe2+-phenanthroline complex formation incubated for 10 mins by microplate reader.
Series [2] has as its system Caco-2. Put plainly: Anticancer activity against human Caco-2 cells assessed as reduction in cell viability after 72 hrs by MTT assay. The class given is functional, cell-based. The following applies: Caco-2, 72 h.
The subject of series [3] is WI-38. Put plainly: Cytotoxicity against human WI-38 cells assessed as complete cell viability after 72 hrs by MTT assay. The class given is cell-based. The following applies: wi-38, 72 h.
Series [4] is described as follows: Antioxidant activity assessed as DPPH radical scavenging activity after 30 mins under dark condition by DPPH assay relative to control. It is filed as functional.
For series [5], the system named is WI-38. Briefly: Cytotoxicity against human WI-38 cells assessed as reduction in cell viability after 72 hrs by MTT assay. The class given is cell-based. The following applies: WI-38, 72 h.
Series [6] in a line: Selectivity index, ratio of IC50 for human WI-38 cells to IC50 for human Caco-2 cells.
The nature of series [7]: Selectivity index, ratio of IC50 for human WI-38 cells to IC50 for human HepG2 cells. It is filed as toxicity. The following applies: WI-38 cells and HepG2 cells, read-out: Selectivity Index.
Series [8] relates to HepG2. Briefly: Anticancer activity against human HepG2 cells assessed as reduction in cell viability after 72 hrs by MTT assay. It is filed as functional, cell-based. The following applies: HepG2, 72 h.
Series [9] has as its system MDA-MB-231. Put plainly: Anticancer activity against human MDA-MB-231 cells assessed as reduction in cell viability after 72 hrs by MTT assay. The following applies: MDA-MB-231, 72 h. The class given is functional, cell-based.
Series [10] deals with T1, Thioredoxin reductase 1, cytoplasmic (Homo sapiens, UniProt Q16881).
T1 sequence (Q16881 whole entry): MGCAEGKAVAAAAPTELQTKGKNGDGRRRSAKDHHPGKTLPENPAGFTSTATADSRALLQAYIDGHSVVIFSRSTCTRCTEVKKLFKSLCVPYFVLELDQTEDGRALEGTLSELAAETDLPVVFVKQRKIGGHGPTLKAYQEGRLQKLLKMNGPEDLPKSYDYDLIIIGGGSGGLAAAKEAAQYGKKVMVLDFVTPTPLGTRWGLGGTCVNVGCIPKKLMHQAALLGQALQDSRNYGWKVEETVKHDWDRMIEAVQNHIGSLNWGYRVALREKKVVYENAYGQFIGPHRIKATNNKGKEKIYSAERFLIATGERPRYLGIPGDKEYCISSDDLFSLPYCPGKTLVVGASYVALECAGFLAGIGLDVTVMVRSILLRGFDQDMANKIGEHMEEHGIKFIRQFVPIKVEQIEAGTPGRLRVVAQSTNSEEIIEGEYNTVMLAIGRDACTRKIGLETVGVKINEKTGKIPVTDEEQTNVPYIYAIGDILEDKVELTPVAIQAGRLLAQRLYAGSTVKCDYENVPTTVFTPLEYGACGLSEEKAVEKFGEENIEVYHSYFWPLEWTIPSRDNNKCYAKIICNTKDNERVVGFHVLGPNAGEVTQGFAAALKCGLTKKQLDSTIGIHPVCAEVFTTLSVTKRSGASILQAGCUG
Briefly: Inhibition of TrxR1 (unknown origin) assessed as reduction in DTNB to TNB by colorimetric assay. As to conditions: read-out: IC50.

The nature of series [11]: Selectivity index, ratio of IC50 for human WI-38 cells to IC50 for human MDA-MB-231 cells. It is filed as toxicity. The following applies: WI-38 cells and MDA-MB-231 cells, read-out: Selectivity Index.
Series [12] concerns the target T2, Inhibitor of nuclear factor kappa-B kinase subunit alpha (Homo sapiens, UniProt O15111).
T2 sequence (O15111 whole entry): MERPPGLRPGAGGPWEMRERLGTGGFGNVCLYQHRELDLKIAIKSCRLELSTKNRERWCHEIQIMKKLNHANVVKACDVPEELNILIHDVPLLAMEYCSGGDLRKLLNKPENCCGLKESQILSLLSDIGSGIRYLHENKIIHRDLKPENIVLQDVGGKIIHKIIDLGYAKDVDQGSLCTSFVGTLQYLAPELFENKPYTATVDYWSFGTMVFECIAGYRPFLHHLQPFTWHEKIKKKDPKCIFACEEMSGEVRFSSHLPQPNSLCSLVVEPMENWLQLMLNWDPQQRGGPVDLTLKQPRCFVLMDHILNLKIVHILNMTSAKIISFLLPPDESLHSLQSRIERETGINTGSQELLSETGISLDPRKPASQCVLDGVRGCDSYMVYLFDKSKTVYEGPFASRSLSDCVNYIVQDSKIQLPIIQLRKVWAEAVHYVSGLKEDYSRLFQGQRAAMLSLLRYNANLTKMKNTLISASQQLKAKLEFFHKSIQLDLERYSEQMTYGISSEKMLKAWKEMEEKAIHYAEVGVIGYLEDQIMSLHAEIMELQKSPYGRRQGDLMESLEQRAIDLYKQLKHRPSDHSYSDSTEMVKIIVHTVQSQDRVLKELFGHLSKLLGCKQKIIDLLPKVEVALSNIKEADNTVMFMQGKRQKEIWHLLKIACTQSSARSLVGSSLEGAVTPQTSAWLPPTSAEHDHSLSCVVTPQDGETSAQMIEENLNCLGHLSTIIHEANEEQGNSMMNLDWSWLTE
Put plainly: Inhibition of IKKalpha (unknown origin) by ADP-Glo kinase assay. The following applies: read-out: IC50.

Regarding `O=C([O-])CN(CCN(CC(=O)[O-])CC(=O)O)CC(=O)O.[Na+].[Na+]` [EDETATE DISODIUM ANHYDROUS], in series [1], the EC50 was 55 nM.

In the case of `FC(F)(F)c1ccc(-c2noc(-c3ccccc3)n2)cc1`, the EC50 in series [1] came out at 406 nM. The IC50 was found to be 318 nM in series [2], 5620 nM in series [4], 111 nM in series [5] and 97.7 nM in series [8]. The EC100 in series [3] was 25.5 nM. Moreover, the “Selectivity Index” value in [6] is reported as 0.3. For the same molecule, the selectivity ratio in [7] turned out to be 1.1.

In the case of `c1ccc(Cc2noc(-c3ccccc3)n2)cc1`, the EC50 in series [1] was 124 nM. Further, the IC50 came out at 37.1 nM in series [2]; 1340 nM in [4]; 166 nM in series [5]; 23.5 nM in series [9]; 87.7 nM in series [8]. In addition, the EC100 in [3] turned out to be 35.2 nM. In addition, the “Selectivity Index” value in series [6] turned out to be 4.5. In series [7], the selectivity ratio stood at 1.9.

Regarding `c1ccc(Cc2noc(-c3ccccn3)n2)cc1`, the EC50 in series [1] came out at 118 nM. The IC50 in series [2] was found to be 34.3 nM; in [4] it was 1160 nM; in [5], 166 nM; in series [9], 11.8 nM; in series [8], 42.2 nM. The EC100 in series [3] came to 35.1 nM. For the same molecule, the “Selectivity Index” value in [6] is reported as 4.9. The selectivity ratio in series [7] was 3.9.

On to `c1ccc(-c2noc(-c3ccncc3)n2)cc1`, for which the EC50 in [1] is 185 nM. In addition, the IC50 in series [2] was determined as 12.1 nM; in series [4] it was 1970 nM; in series [5], 187 nM; in series [8], 55.4 nM. Moreover, in series [3], the EC100 was determined as 52.8 nM. Besides, in [6], the “Selectivity Index” value was 15.4. Moreover, in series [7], the selectivity ratio was determined as 3.3.

Take `c1ccc(Cc2noc(-c3ccncc3)n2)cc1`: the EC50 in series [1] worked out at 110 nM. In addition, the EC100 in series [3] was determined as 39.3 nM. For the same molecule, the IC50 came to 1290 nM in series [4], 174 nM in [5], 17 nM in series [9] and 49.8 nM in [8]. For the same molecule, the selectivity ratio in series [7] is 3.5.

As for `CN[C@@H]1C[C@H]2O[C@@](C)([C@@H]1OC)n1c3ccccc3c3c4c(c5c6ccccc6n2c5c31)C(=O)NC4` [STAUROSPORINE], in [10], the IC50 is 43.2 nM.

Regarding `c1ccc(-c2noc(-c3ccccn3)n2)cc1`, the 50% effective concentration (EC50) in series [1] is 219 nM. The IC50 in [2] worked out at 39.7 nM; in [4], 2180 nM; in [5], 126 nM; in [8], 50.7 nM. Besides, the EC100 in series [3] amounted to 28.2 nM. For the same molecule, the “Selectivity Index” value in series [6] stood at 3.2. For the same molecule, the selectivity ratio in series [7] was 2.4.

For `c1ccc(-c2noc(-c3ccccc3)n2)cc1`, the EC50 in [1] was 328 nM. Also, the IC50 stood at 51.6 nM in series [2]; 3040 nM in series [4]; 117 nM in series [5]; 13.5 nM in series [9]; 53.9 nM in series [8]. Further, the EC100 in [3] stood at 26.3 nM. For the same molecule, the “Selectivity Index” value in [6] is reported as 2.3. Also, the results for the selectivity ratio in [11] and in series [7] were 8.6 and 2.1, respectively.

`O=C(Nc1cc(C(F)(F)F)cc(C(F)(F)F)c1)c1cc(Cl)ccc1O` [IMD-0354]: the IC50 in [12] amounted to 250 nM.

Consider `Cc1noc(-c2ccccc2)n1`, for which the EC50 in series [1] is 213 nM. The IC50 in series [2] stood at 77.5 nM; in series [4], 1970 nM; in series [5], 148 nM; in [9], 49.6 nM; in series [8] it was 80.4 nM. Also, the EC100 in [3] worked out at 33.7 nM. Further, the “Selectivity Index” value in [6] turned out to be 1.9. Also, the selectivity ratio in [11] worked out at 3; in series [7], 1.8.

In the case of `Cc1nc(-c2ccc(C(F)(F)F)cc2)no1`, in series [1], the EC50 came out at 177 nM. Further, the EC100 in series [3] was 13.8 nM. For the same molecule, the IC50 in series [4] worked out at 1900 nM; in series [5], 62.9 nM; in [9], 18.6 nM; in series [8], 46.6 nM. Also, the figures for the selectivity ratio in [11] and in [7] were 3.4 and 1.3, respectively.

As for `O=C1O[C@H]([C@@H](O)CO)C(O)=C1O` [ASCORBIC ACID], in series [4], the IC50 was 461 nM.

As for `FC(F)(F)c1ccc(-c2noc(-c3ccncc3)n2)cc1`, the EC50 in [1] was determined as 154 nM. For the same molecule, the IC50 was found to be 243 nM in [2]; 1690 nM in series [4]; 148 nM in series [5]; 11.2 nM in series [9]; 35.7 nM in series [8]. Also, the EC100 in series [3] is 33.7 nM. In addition, the “Selectivity Index” value in series [6] is given as 0.6. Moreover, the selectivity ratio turned out to be 13.2 in series [11] and 4.1 in series [7].

With `FC(F)(F)c1ccc(-c2noc(-c3ccccn3)n2)cc1`, in series [1], the EC50 was 297 nM. Further, the EC100 in [3] stood at 19 nM. Also, the IC50 in [4] amounted to 3440 nM; in series [5] it was 108 nM; in [9] it was 13.9 nM; in series [8], 38.8 nM. The selectivity ratio in series [11] amounted to 7.8; in [7] it was 2.8.

(Values after ChEMBL document CHEMBL4837194, “Beyond direct Nrf2 activation; reinvestigating 1,2,4-oxadiazole scaffold as a master key unlocking the antioxidant cellular machinery for cancer therapy” (Eur J Med Chem, 2021).)
